Test results from article PMC4425204 (Bioorganic & medicinal chemistry letters, 2014).

Biological target: FabB (Escherichia coli, UniProt P0A953)
Test: NMR wLOGSY assay to evaluate FabB binding
Parameters: species or system E. coli

Sequence of FabB (P0A953 whole entry): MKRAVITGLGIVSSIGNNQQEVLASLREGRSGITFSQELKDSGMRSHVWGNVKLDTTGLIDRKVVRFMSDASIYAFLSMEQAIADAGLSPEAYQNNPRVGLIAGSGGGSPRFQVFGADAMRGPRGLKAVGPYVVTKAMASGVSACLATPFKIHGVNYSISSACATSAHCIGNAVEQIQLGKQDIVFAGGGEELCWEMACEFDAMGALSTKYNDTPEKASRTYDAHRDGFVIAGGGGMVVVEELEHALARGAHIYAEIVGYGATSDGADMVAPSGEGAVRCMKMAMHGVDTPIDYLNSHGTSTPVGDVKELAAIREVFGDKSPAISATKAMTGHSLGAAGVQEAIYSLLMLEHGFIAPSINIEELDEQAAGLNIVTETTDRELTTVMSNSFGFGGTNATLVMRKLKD

**Q.** `O=c1oc2cc(Cl)ccc2n1CN(CC1CCOC1)C1CC1` (stereo not shown) [compound 1] was tested. Which “FabB binding in NMR wLOGSY assay” value did it give?
**A.** exhibited binding
